Reference: patent publication US20040171598A1, “Use of steroids to treat persons suffering from ocular disorders” (priority 2003, published 2004)

Assays:
[1] = tested on: retinal neovascularization; test: Rat pup model of retinopathy of prematurity; type: in vivo
Experimental: Anecortave acetate was tested for its angiostatic efficacy in a rat pup model of retinopathy of prematurity (Penn, at al., Investigative Ophthalmology & Visual Science, “The Effect of an Angiostatic Steroid on Neovascularization in a Rat Model of Retinopathy of Prematurity,” Vol. 42(1):283-290, January 2001). Newborn rat pups were placed in an atmosphere of varying oxygen content. The rats received a single intravitreal injection of vehicle or anecortave acetate (500 μg) upon return to room air (day 14) or 2 days later (day 16). There was significant retinal neovascularization in the rats that receive vehicle injections.

[2] = tested on: IOP; test: Dexamethasone acetate induced IOP elevation in rabbits; type: in vivo, rabbit; conditions: for IOP: rabbits with weekly subTenon's dexamethasone acetate 1 mg/kg, versus vehicle
Experimental: Three groups of rabbits received weekly subTenon's injections of dexamethasone acetate (1 mg/kg) for 4 weeks. After two weeks, the IOPs of all three groups measured approximately 5 mm Hg. The rabbits were then treated with vehicle, 0.1% anecortave acetate, a 1% anecortave acetate by topical ocular dosing three times a day for the remaining 2 weeks. The IOP continued to increase in the vehicle treated group.

SMILES | inhibition of retinal neovascularization ([1]; single intravitreal injection 500 μg 2 days after return to room air (day 16)) [%] | inhibition of retinal neovascularization ([1]; single intravitreal injection 500 μg upon return to room air (day 14)) [%] | IOP ([2]; 0.1% anecortave acetate topical ocular three times a day for 2 weeks) | IOP ([2]; 1% anecortave acetate topical ocular three times a day for 2 weeks) | IOP after two weeks of dexamethasone acetate ([2]; rabbits, weekly subTenon's injections 1 mg/kg, all three groups, before anecortave acetate or vehicle dosing)
CC(=O)OCC(=O)[C@@]1(O)CC[C@H]2[C@@H]3CCC4=CC(=O)CC[C@]4(C)C3=CC[C@@]21C [anecortave acetate, 4,9(11)-pregnadien-17α,21-diol-3,20dione-21-acetate] | 50 | 66 | significantly lowered | significantly lowered | –
CC(=O)OCC(=O)[C@@]1(O)[C@H](C)C[C@H]2[C@@H]3CCC4=CC(=O)C=C[C@]4(C)[C@@]3(F)[C@@H](O)C[C@@]21C [dexamethasone acetate] | – | – | – | – | approximately 5 mm Hg
